Target: T1, human Npt2a (Homo sapiens, UniProt Q06495)
T1 construct: expressed in transfected cells
T1 sequence (Q06495 1-639): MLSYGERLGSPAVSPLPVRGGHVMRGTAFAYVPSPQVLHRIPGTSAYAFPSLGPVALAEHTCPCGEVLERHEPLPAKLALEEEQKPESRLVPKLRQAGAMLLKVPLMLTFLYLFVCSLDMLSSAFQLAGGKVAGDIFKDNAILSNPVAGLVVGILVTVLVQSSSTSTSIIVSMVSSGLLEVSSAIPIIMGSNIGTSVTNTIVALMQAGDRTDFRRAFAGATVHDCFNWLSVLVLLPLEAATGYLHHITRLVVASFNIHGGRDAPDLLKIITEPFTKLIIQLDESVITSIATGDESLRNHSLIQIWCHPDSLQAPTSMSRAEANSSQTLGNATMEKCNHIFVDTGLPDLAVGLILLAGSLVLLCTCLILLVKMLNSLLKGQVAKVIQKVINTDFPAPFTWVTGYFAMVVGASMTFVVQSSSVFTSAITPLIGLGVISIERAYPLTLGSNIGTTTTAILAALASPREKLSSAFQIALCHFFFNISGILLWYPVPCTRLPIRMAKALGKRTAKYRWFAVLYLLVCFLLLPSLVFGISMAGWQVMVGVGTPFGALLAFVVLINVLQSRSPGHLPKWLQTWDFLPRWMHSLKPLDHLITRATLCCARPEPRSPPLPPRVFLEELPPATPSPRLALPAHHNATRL
Experiment: Npt2a activity cell based assay, membrane potential dye, CHO T-REx hNpt2a cells
Details: doxycycline-induced, depolarization by sodium phosphate influx, average or median values if tested more than once
Procedure, shortened: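 Doxycycline-induced (0.5 μg/mL, 24 h) CHO T-REx cells were loaded with membrane potential dye in sodium-free NHE buffer (pH 7.4) and exposed to compound (50 μM–1 nM, 5 min, room temperature).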

SMILES | IC50
Cc1c(-c2ccc(F)cc2)nn(CC2CC2)c1Nc1cc(-n2nc3c(c2C)C(C)(O)CC3)ncn1 (racemic) [Example 404, (±)-2-(6-{[1-(cyclopropylmethyl)-3-(4-fluorophenyl)-4-methyl-1H-pyrazol-5-yl]amino}pyrimidin-4-yl)-3,4-dimethyl-2,4,5,6-tetrahydrocyclopenta[c]pyrazol-4-ol] | 13 nM
CCc1c(Nc2cc(-n3ncc4c3CCCC4)ncn2)n[nH]c1-c1ccc(F)cc1 [Example 22, N-[4-ethyl-5-(4-fluorophenyl)-1H-pyrazol-3-yl]-6-(4,5,6,7-tetrahydro-1H-indazol-1-yl)pyrimidin-4-amine] | 150 nM
CCCN1Cc2cnn(-c3cc(Nc4c(C)c(-c5ccc(F)cc5)nn4CC4CC4)ncn3)c2C1 [Example 522, N-[1-(cyclopropylmethyl)-3-(4-fluorophenyl)-4-methyl-1H-pyrazol-5-yl]-6-(5-propyl-5,6-dihydropyrrolo[3,4-c]pyrazol-1(4H)-yl)pyrimidin-4-amine] | 910 nM
CC(=O)c1c(C)nn(-c2cc(Nc3c(C)c(-c4ccc(C#N)cc4)nn3CC3CC3)ncn2)c1C [Example 321, 4-[5-{[6-(4-acetyl-3,5-dimethyl-1H-pyrazol-1-yl)pyrimidin-4-yl]amino}-1-(cyclopropylmethyl)-4-methyl-1H-pyrazol-3-yl]benzonitrile] | 16 nM
CCOC(=O)Cc1c(C)nn(-c2cc(Nc3c(C)nn(-c4ccc(C#N)cc4)c3C)ncn2)c1C [Example 257, ethyl [1-(6-{[1-(4-cyanophenyl)-3,5-dimethyl-1H-pyrazol-4-yl]amino}pyrimidin-4-yl)-3,5-dimethyl-1H-pyrazol-4-yl]acetate] | 74 nM
Cc1nn(-c2cc(Nc3c(Cl)c(-c4ccccc4)nn3C)ncn2)c(C)c1Cl [Example 80, 6-(4-chloro-3,5-dimethyl-1H-pyrazol-1-yl)-N-(4-chloro-1-methyl-3-phenyl-1H-pyrazol-5-yl)pyrimidin-4-amine] | 44 nM
Cc1cc(C)n(-c2cc(Nc3nn(C)c(-c4ccccc4)c3C)ncn2)n1 [Example 62, N-(1,4-dimethyl-5-phenyl-1H-pyrazol-3-yl)-6-(3,5-dimethyl-1H-pyrazol-1-yl)pyrimidin-4-amine] | 135 nM
CCOC(=O)c1c(C)nn(-c2cc(Nc3n[nH]c(-c4ccc(F)cc4)c3CC)ncn2)c1C [Example 4, ethyl 1-(6-{[4-ethyl-5-(4-fluorophenyl)-1H-pyrazol-3-yl]amino}pyrimidin-4-yl)-3,5-dimethyl-1H-pyrazole-4-carboxylate] | 28.3 nM
Cc1ccn(-c2cc(Nc3c(C)c(-c4ccc(C#N)cc4)nn3CC3CC3)ncn2)n1 [Example 243, 4-[1-(cyclopropylmethyl)-4-methyl-5-{[6-(3-methyl-1H-pyrazol-1-yl)pyrimidin-4-yl]amino}-1H-pyrazol-3-yl]benzonitrile] | 28 nM
Cc1nn(-c2cc(Nc3c(C)c(-c4ccc(F)cc4)nn3CC3CC3)ncn2)c(C)c1C(O)C(F)(F)F (single isomer, unassigned) [Example 375, 1-[1-(6-{[1-(cyclopropylmethyl)-3-(4-fluorophenyl)-4-methyl-1H-pyrazol-5-yl]amino}pyrimidin-4-yl)-3,5-dimethyl-1H-pyrazol-4-yl]-2,2,2-trifluoroethanol] | 40 nM
Cc1c(-c2ccc(F)cc2)nn(CC2CC2)c1Nc1cc(-n2nc(C)c3ccncc32)ncn1 [Example 204, N-[1-(cyclopropylmethyl)-3-(4-fluorophenyl)-4-methyl-1H-pyrazol-5-yl]-6-(3-methyl-1H-pyrazolo[3,4-c]pyridin-1-yl)pyrimidin-4-amine] | 3 nM
Cc1nn(-c2cc(Nc3nn(C)c(-c4ccc(F)cc4)c3Cl)ncn2)c(C)c1C1(O)CC1 [Example 357, 1-[1-(6-{[4-chloro-5-(4-fluorophenyl)-1-methyl-1H-pyrazol-3-yl]amino}pyrimidin-4-yl)-3,5-dimethyl-1H-pyrazol-4-yl]cyclopropanol] | 32 nM
CCc1c(Nc2cc(-n3nc(C)cc3C)ncn2)nn(S(C)(=O)=O)c1-c1ccc(F)cc1 [Example 114, 6-(3,5-dimethyl-1H-pyrazol-1-yl)-N-[4-ethyl-5-(4-fluorophenyl)-1-(methylsulfonyl)-1H-pyrazol-3-yl]pyrimidin-4-amine] | 290 nM
Cc1nn(-c2cc(Nc3c(C)c(-c4ccc(C#N)cc4)nn3C)ncn2)c2c1C(C)(O)CC2 (racemic) [Example 227, 4-[5-({6-[(±)-4-hydroxy-3,4-dimethyl-5,6-dihydrocyclopenta[c]pyrazol-1(4H)-yl]pyrimidin-4-yl}amino)-1,4-dimethyl-1H-pyrazol-3-yl]benzonitrile] | 16 nM
COc1c(Nc2cc(-n3nc(C)cc3C)ncn2)nn(C)c1-c1ccc(C#N)cc1 [Example 443, 4-(3-{[6-(3,5-dimethyl-1H-pyrazol-1-yl)pyrimidin-4-yl]amino}-4-methoxy-1-methyl-1H-pyrazol-5-yl)benzonitrile] | 11 nM
Cc1cc(C(F)F)n(-c2cc(Nc3c(C)c(-c4ccc(C(F)(F)F)nc4)nn3C)ncn2)n1 [Example 548, 6-[5-(difluoromethyl)-3-methyl-1H-pyrazol-1-yl]-N-{1,4-dimethyl-3-[6-(trifluoromethyl)pyridin-3-yl]-1H-pyrazol-5-yl}pyrimidin-4-amine] | 790 nM
CCc1c(Nc2cc(-n3nc(C)c(CC(C)(C)O)c3C)ncn2)nn(C)c1-c1ccc(F)cc1 [Example 238, 1-[1-(6-{[4-ethyl-5-(4-fluorophenyl)-1-methyl-1H-pyrazol-3-yl]amino}pyrimidin-4-yl)-3,5-dimethyl-1H-pyrazol-4-yl]-2-methylpropan-2-ol] | 83 nM
CCOC(=O)c1c(C)nn(-c2cc(Nc3[nH]nc(-c4ccc(F)cc4)c3C3CC3)ncn2)c1C [Example 15, ethyl 1-(6-{[4-cyclopropyl-3-(4-fluorophenyl)-1H-pyrazol-5-yl]amino}pyrimidin-4-yl)-3,5-dimethyl-1H-pyrazole-4-carboxylate] | 72 nM
CCOC(=O)c1c(C)nn(-c2cc(Nc3nn(CC4CC4)c(-c4ccc(F)cc4)c3CC)ncn2)c1C [Example 145, ethyl 1-(6-{[1-(cyclopropylmethyl)-4-ethyl-5-(4-fluorophenyl)-1H-pyrazol-3-yl]amino}pyrimidin-4-yl)-3,5-dimethyl-1H-pyrazole-4-carboxylate] | 170 nM
CCc1c(-c2ccc(C#N)cc2)nn(C)c1Nc1cc(-n2nc(C)cc2C(F)F)ncn1 [Example 216, 4-[5-({6-[5-(difluoromethyl)-3-methyl-1H-pyrazol-1-yl]pyrimidin-4-yl}amino)-4-ethyl-1-methyl-1H-pyrazol-3-yl]benzonitrile] | 12 nM
Cc1cc(C)n(-c2cc(Nc3c(Cl)c(-c4ccc(F)cc4)nn3C)ncn2)n1 [Example 90, N-[4-chloro-3-(4-fluorophenyl)-1-methyl-1H-pyrazol-5-yl]-6-(3,5-dimethyl-1H-pyrazol-1-yl)pyrimidin-4-amine] | 133 nM
CCOC(=O)c1c(C)nn(-c2cc(Nc3c(C)c(-c4ccc(F)cn4)nn3CCOC)ncn2)c1C [Example 545, ethyl 1-(6-{[3-(5-fluoropyridin-2-yl)-1-(2-methoxyethyl)-4-methyl-1H-pyrazol-5-yl]amino}pyrimidin-4-yl)-3,5-dimethyl-1H-pyrazole-4-carboxylate] | 14 nM
Cc1cc(C)n(-c2cc(Nc3c(C)nn(-c4ccc(C#N)cc4)c3C)ncn2)n1 [Example 199, 4-(4-{[6-(3,5-dimethyl-1H-pyrazol-1-yl)pyrimidin-4-yl]amino}-3,5-dimethyl-1H-pyrazol-1-yl)benzonitrile] | 36 nM
Cc1cc(C(F)F)n(-c2cc(Nc3nn(C)c(-c4ccc(C#N)cc4)c3C)ncn2)n1 [Example 236, 4-[3-({6-[5-(difluoromethyl)-3-methyl-1H-pyrazol-1-yl]pyrimidin-4-yl}amino)-1,4-dimethyl-1H-pyrazol-5-yl]benzonitrile] | 3 nM
CCOC(=O)Cc1c(C)nn(-c2cc(Nc3nn(C)c(-c4ccc(C#N)cc4)c3OC)ncn2)c1C [Example 492, ethyl [1-(6-{[5-(4-cyanophenyl)-4-methoxy-1-methyl-1H-pyrazol-3-yl]amino}pyrimidin-4-yl)-3,5-dimethyl-1H-pyrazol-4-yl]acetate] | 13 nM
COCCn1nc(-c2ccc(F)cn2)c(C)c1Nc1cc(-n2nc(C)cc2C)ncn1 [Example 542, 6-(3,5-dimethyl-1H-pyrazol-1-yl)-N-[3-(5-fluoropyridin-2-yl)-1-(2-methoxyethyl)-4-methyl-1H-pyrazol-5-yl]pyrimidin-4-amine] | 28 nM
CCOC(=O)c1cc(C)n(-c2cc(Nc3nn(C)c(-c4ccc(F)cc4)c3CC)ncn2)n1 [Example 83, ethyl 1-(6-{[4-ethyl-5-(4-fluorophenyl)-1-methyl-1H-pyrazol-3-yl]amino}pyrimidin-4-yl)-5-methyl-1H-pyrazole-3-carboxylate] | 1300 nM
Cc1nn(-c2cc(Nc3c(C)c(-c4ccc(F)cc4)nn3CC3CC3)ncn2)c(C)c1C(O)C1CC1 (racemic) [Example 405, (±)-cyclopropyl[1-(6-{[1-(cyclopropylmethyl)-3-(4-fluorophenyl)-4-methyl-1H-pyrazol-5-yl]amino}pyrimidin-4-yl)-3,5-dimethyl-1H-pyrazol-4-yl]methanol] | 14 nM
